We go through 19 compounds from patent US10858367B2, “Compounds” (GLAXOSMITHKLINE INTELLECTUAL PROPERTY DEVELOPMENT LIMITED, priority 2017, dated 2020).

The first experiment deals with T1, full length G2019 human LRRK2 (Homo sapiens, UniProt Q5S007, R50H).
T1 construct: made in house; host or cells: HEK293 6E cells transduced with BacMam virus (virus generated in Sf9 cells)
T1 sequence (Q5S007 with tags, fused parts or gaps R50H): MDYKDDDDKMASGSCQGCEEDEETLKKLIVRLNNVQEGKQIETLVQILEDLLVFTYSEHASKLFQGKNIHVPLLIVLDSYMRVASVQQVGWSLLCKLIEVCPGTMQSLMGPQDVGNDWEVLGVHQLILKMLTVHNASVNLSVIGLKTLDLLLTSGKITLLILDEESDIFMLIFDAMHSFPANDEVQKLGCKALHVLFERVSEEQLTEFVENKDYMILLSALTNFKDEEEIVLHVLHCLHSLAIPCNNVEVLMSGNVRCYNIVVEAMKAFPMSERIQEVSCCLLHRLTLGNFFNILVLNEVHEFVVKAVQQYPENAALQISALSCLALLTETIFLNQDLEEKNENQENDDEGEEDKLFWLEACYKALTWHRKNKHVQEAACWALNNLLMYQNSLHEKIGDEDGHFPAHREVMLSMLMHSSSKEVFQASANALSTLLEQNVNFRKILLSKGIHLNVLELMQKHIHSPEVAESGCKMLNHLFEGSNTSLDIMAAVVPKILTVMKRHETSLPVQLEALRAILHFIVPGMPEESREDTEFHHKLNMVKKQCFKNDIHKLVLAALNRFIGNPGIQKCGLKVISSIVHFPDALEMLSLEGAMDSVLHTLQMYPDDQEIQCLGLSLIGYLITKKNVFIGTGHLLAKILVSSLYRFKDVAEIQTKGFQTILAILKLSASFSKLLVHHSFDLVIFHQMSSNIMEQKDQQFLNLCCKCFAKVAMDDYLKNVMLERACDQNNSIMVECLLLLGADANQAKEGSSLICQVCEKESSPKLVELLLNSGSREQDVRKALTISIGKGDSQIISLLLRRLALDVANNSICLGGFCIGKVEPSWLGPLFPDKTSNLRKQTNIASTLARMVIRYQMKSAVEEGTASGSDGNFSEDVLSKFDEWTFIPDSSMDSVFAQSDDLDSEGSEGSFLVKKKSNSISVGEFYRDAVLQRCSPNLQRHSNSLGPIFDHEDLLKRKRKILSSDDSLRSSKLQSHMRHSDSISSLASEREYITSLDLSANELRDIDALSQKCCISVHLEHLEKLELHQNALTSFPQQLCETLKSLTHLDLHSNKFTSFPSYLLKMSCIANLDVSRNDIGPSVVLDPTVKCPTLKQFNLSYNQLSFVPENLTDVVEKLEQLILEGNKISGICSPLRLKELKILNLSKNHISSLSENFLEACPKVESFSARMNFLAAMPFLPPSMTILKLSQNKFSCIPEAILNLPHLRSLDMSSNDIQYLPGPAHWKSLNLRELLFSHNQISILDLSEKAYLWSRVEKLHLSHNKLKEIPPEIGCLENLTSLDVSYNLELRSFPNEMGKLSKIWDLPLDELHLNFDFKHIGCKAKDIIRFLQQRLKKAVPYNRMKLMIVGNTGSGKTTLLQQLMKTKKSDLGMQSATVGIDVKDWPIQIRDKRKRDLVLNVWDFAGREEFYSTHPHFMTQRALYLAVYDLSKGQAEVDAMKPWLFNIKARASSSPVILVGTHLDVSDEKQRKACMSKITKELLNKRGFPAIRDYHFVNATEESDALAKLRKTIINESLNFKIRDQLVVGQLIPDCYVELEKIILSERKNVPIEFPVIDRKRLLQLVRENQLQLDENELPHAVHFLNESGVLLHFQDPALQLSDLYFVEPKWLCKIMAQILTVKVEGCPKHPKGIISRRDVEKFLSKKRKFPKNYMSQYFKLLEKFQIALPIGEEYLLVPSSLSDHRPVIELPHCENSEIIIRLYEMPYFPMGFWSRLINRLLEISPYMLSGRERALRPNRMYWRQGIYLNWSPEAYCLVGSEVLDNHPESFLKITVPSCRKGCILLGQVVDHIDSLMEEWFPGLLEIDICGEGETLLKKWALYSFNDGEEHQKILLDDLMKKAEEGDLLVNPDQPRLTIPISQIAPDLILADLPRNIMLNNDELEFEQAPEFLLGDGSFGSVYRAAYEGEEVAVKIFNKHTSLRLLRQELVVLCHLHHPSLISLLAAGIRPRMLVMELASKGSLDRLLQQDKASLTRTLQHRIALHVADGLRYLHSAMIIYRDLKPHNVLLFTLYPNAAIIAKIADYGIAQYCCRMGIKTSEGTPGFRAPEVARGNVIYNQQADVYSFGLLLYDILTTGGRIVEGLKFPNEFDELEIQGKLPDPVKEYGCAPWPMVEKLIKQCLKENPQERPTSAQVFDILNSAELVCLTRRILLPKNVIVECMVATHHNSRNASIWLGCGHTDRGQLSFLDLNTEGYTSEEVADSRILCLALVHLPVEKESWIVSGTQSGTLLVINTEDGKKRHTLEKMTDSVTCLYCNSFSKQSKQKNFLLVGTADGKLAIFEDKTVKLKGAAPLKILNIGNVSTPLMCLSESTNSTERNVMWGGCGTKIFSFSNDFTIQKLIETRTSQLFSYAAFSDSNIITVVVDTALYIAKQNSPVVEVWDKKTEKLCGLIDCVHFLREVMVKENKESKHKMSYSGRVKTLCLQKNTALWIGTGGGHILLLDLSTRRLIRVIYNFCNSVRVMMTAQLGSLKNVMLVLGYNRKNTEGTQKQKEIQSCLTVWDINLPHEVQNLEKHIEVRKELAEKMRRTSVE
The experiment can be described thus: Full length G2019 human LRRK2 Inhibition Mass Spectrometry assay. It counts as biochemical. The following applies: 25 nM LRRK2 enzyme, 25 uM LRRKtide, 2 mM ATP; RapidFire mass spectrometry; read-out: pIC50 in the full length G2019 human LRRK2 Inhibition Mass Spectrometry assay (converted). From the text:
a. Full Length G2019 Human LRRK2 Inhibition Mass Spectrometry Assay
This assay for Leucine Rich Repeat Kinase 2 (LRRK2) inhibition is based on the direct measurement of the peptide ‘LRRKtide’ (LRRKtide: RLGRDKYKT*LRQIRQ and “*” refers to the site of phosphorylation.) and phosphorylated ‘LRRKtide’ using a high throughput RapidFire mass spectrometry assay. Inhibitors are compounds that reduce the conversion of LRRKtide to phospho-LRRKtide.
Human G2019 LRRK2 Plasmid Preparation
Primers used for PCR cloning: • pHTBV-F:SEQ ID No: 1 • LRRK2 wt-F1:SEQ ID No: 2 • LRRK2 wt-R1: SEQ ID No: 3 • LRRK2 wt-F2: SEQ ID No: 4 • LRRK2 wt-R2: SEQ ID No: 5 • LRRK2 wt-F3:SEQ ID No: 6 • pHTBV-R: SEQ ID No: 7 pHTBV1-N-Flag-hu LRRK2 was generated by PCR amplifying the full length LRRK2 sequence with N terminal Flag tag from pcDNA3.1(+)_Human_LRRK2 (NCBI Reference Sequence: NP_940980.3) with the primers described above, and cloned into pHTBV1mcs3 vector between BamHI and KpnI sites.
The G2019 full length Flag-LRRK2 coding sequence is SEQ ID No: 8.
The translated amino acid sequence for human G2019 full length N terminal flag tagged LRRK2 protein is SEQ ID No: 9.
Protein Expression & Purification a) Expression of Flag Tagged Full Length G2019 Human LRRK2
HEK293 6E cells were incubated in a 37° C. incubator with a humidified atmosphere of 5% CO2 on an orbital shaker rotating at 110 rpm. On the day of transduction, the cell viability was higher than 98% and the cell density was in the range of 1×10^6˜1.5×10^6 cells/ml. HEK293 6E cells were centrifuged at 1,000 rpm for 10 min, and then the cells were resuspended in fresh Freestyle 293 expression medium (Invitrogen: 12338) with 0.1% F-68(Invitrogen: 24040-032) but without antibiotics (G418) at density of 1×10^6 cells/ml. BacMam virus with Flag-hu LRRK2 (genotypically normal) gene was centrifuged at 40,000 g for 2 hours, then resuspended in fresh Freestyle 293 expression medium. The resuspended virus was added into the cells in at MOI of 10. The cells were incubated in a 37° C. incubator with a humidified atmosphere of 5% CO2 in air on an orbital shaker rotating at 110 rpm. Cultures were harvested at approximately 48 hours post-transduction by centrifugation at 4,000 rpm for 20 min and pellets were frozen for purification. […]
b) Purification of Flag Tagged Full Length G2019 Human LRRK2
The suspended cells were lysed by sonication on ice for 30 min (2 secs on/4 sec off, 20% amplitude), and centrifuged at 10,000 rpm for 30 minutes at 4° C. The supernatant was incubated with 1 mL per litre of cell culture of anti-Flag magnetic beads (Sigma-Aldrich: M8823) at 4° C. for 3 hours, then the beads were washed by 5 mL (5 column volume) binding buffer (50 mM Tris pH7.5@ 4 C, 500 mM NaCl, 0.5 mM EDTA, 0.1% TritonX-100, 10% glycerol, freshly add 2 mM DTT) for three times. The Flag tagged LRRK2 proteins were eluted by Elution buffer (50 mM Tris pH7.5@ 4 C, 500 mM NaCl, 0.5 mM EDTA, 0.1% TritonX-100, 10% glycerol, freshly add 2 mM DTT, 250 ug/ml Flag peptide (Sigma-Aldrich:F3290)) at 4° C. for 2 hours. Flag peptide was removed by Zeba Spin Desalting Columns, 7K MWCO (Thermo-Fisher: 89893) and the buffer of eluted LRRK2 proteins was exchanged into Storage Buffer (50 mM Tris pH7.5@4 C, 150 mM NaCl, 0.5 mM EDTA, 0.02% Triton X-100, 2 mM DTT and 50% Glycerol) using Amicon Ultra Centrifugal Filter Units (100 kD) (Merck: UFC910096). Fractions containing LRRK2 proteins were pooled, aliquoted and stored at −80° C. Protein concentration was determined by Bradford protein assay, and protein purity was analyzed by NuPAG Novex 4-12% Bis-Tris Protein Gels (Invitrogen: NP0322BOX).
Assay Protocol • 1) A 10 mM test compound was dissolved in 100% DMSO and serially diluted 1 in 4. 100 nL of this dilution series was then added to a 384 well, v bottom polypropylene plate, excluding columns 6 and 18. 100 nL of DMSO was added to columns 6 and 18 as controls wells. […]
For the compound `COc1nc(N2CC3CC2CO3)cc(-n2ncc3cc(C)c(C4CCN(C5COC5)CC4O)cc32)n1` (single isomer, unassigned) [Example E133], the IC50 is not above 100 nM.

`Cc1nc(N2C[C@H]3C[C@@H]2CO3)cc(-n2ncc3cc(C)c(C4CCN(C5CCOC5)CC4F)cc32)n1` (single isomer, unassigned) [Example E148]: the IC50 is not above 100 nM.

Consider `Cc1nc(N2C[C@@H]3C[C@H]2CO3)cc(-n2ncc3cc(C)c(C4CCN(C5CCOC5)CC4F)cc32)n1` (single isomer, unassigned) [Example E150], for which the IC50 is not above 100 nM.

With `Cc1nc(N2CC3(CO)CC2CO3)cc(-n2ncc3cc(C)c(C4CCN(C5CCOC5)CC4)cc32)n1` (single isomer, unassigned) [Example E152, (5-(2-methyl-6-(5-methyl-6-(1-(tetrahydrofuran-3-yl)piperidin-4-yl)-1H-indazol-1-yl)pyrimidin-4-yl)-2-oxa-5-azabicyclo[2.2.1]heptan-1-yl)methanol], the IC50 was not above 100 nM.

For `Cc1nc(N2C[C@H]3C[C@@H]2CO3)cc(-n2ncc3cc(C)c(C4CCN(CCC(=O)O)CC4F)cc32)n1` (single isomer, unassigned) [Example E154], the IC50 is not above 100 nM.

Turning to `Cc1nc(N2C[C@@H]3C[C@H]2CO3)cc(-n2ncc3cc(C)c(C4CCN(CCC(=O)O)CC4F)cc32)n1` (single isomer, unassigned) [Example E156], the IC50 was not above 100 nM.

As for `Cc1nc(N2C[C@H]3C[C@@H]2CO3)cc(-n2ncc3cc(C)c(C4CCN(C5COCC5O)CC4)cc32)n1` (single isomer, unassigned) [Example E171], the IC50 is not above 100 nM.

As for `Cc1nc(N2C[C@@]3(CO)C[C@@H]2CO3)cc(-n2ncc3cc(C)c(C4CCN([C@H]5CCOC5)CC4)cc32)n1` [Example E142, ((1R,4R)-5-(2-methyl-6-(5-methyl-6-(1-((S)-tetrahydrofuran-3-yl)piperidin-4-yl)-1H-indazol-1-yl)pyrimidin-4-yl)-2-oxa-5-azabicyclo[2.2.1]heptan-1-yl)methanol], the IC50 was not above 100 nM.

The target in a further experiment is T2, LRRK2 Ser935 phosphorylation in SH-SY5Y cells over-expressing recombinant full length LRRK2 (Homo sapiens, UniProt Q5S007).
T2 construct: A BacMam virus expressing full length recombinant LRRK2 was purchased from Invitrogen; host or cells: SH-SY5Y human neuroblastoma cells transduced with BacMam LRRK2 virus
T2 sequence (Q5S007 whole entry): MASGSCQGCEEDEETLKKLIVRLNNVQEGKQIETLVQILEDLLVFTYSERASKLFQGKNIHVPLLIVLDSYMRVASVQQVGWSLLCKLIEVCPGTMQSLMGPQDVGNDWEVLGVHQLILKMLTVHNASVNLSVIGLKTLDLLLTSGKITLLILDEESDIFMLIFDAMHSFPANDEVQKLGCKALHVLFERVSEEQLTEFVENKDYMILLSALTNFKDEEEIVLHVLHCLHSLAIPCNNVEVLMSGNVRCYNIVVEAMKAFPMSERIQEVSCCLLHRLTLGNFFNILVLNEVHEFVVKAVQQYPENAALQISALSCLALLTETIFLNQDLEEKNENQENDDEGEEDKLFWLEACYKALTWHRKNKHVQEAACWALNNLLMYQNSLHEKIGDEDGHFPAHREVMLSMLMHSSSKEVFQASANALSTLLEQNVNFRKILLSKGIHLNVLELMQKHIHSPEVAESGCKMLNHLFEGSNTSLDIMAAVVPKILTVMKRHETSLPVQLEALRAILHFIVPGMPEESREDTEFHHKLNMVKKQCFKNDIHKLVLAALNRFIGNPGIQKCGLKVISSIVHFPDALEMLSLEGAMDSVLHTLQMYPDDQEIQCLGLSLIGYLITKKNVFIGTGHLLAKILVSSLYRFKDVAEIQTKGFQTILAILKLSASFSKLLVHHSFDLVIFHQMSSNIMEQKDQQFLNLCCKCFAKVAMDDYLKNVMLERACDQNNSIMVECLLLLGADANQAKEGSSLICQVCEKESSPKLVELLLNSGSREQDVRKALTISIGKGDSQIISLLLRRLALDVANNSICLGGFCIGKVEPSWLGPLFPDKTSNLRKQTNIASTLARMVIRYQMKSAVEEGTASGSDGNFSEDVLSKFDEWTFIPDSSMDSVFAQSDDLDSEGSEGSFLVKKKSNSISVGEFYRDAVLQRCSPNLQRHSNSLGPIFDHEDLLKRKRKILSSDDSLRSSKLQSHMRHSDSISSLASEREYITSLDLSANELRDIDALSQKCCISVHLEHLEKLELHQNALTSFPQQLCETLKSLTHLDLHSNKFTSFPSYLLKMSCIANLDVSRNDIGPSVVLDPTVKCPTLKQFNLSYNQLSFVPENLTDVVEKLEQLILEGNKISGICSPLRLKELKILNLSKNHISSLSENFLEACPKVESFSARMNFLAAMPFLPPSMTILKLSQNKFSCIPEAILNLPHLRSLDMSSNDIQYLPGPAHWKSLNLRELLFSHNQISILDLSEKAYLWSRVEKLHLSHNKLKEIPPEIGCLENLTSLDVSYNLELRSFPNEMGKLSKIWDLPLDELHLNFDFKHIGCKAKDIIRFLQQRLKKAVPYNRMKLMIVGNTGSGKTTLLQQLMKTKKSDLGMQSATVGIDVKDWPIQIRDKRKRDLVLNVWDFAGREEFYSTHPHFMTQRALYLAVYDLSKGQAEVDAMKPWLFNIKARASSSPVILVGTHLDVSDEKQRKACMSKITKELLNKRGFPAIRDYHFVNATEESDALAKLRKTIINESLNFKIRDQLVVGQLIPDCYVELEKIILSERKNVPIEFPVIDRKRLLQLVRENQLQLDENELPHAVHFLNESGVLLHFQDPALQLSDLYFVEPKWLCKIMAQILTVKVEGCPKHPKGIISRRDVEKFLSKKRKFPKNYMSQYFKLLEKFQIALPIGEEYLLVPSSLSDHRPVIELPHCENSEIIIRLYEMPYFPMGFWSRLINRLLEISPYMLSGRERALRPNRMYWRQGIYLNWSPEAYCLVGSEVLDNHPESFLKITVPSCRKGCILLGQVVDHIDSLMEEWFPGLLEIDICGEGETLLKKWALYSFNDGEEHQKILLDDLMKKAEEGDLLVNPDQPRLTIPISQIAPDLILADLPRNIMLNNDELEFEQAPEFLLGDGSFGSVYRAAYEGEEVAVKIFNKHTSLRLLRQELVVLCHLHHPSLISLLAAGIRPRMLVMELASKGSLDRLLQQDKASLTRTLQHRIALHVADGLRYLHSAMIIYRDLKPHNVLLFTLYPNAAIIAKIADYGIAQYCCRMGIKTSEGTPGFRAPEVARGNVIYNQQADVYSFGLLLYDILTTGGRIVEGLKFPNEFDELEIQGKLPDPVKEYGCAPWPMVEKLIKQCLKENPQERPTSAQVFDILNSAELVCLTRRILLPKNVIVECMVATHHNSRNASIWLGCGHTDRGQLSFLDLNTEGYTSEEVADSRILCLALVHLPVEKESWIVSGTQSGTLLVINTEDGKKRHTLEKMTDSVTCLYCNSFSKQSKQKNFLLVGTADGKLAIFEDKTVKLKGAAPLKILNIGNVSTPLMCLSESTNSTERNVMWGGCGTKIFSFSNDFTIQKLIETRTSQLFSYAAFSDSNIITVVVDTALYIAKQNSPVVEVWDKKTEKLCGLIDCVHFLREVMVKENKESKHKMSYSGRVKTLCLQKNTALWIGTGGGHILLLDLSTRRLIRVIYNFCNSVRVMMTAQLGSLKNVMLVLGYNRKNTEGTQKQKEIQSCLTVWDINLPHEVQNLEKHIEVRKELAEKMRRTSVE
The experiment can be described thus: Recombinant cellular LRRK2 AlphaScreen assay. Format: cell-based. The settings on record: human neuroblastoma SH-SY5Y cells, BacMam full length LRRK2, 60 minutes with compound, read-out: pIC50 in the recombinant cellular LRRK2 AlphaScreen assay (converted). Put shortly: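 SH-SY5Y cells transduced with BacMam full-length human LRRK2 (MOI 50) for 24 h, then treated with compound (top final 10 μM) for 60 min at 37° C. Lysate pSer935 LRRK2 quantified by AlphaScreen using anti-pS935 and total-LRRK2 antibodies. Values from sigmoidal dose-response fit.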
As for `COc1nc(N2CC3CC(C2)O3)cc(-n2ncc3cc(C)c(C4CCNCC4)cc32)n1` [Example E60, 3-(2-methoxy-6-(5-methyl-6-(piperidin-4-yl)-1H-indazol-1-yl)pyrimidin-4-yl)-6-oxa-3-azabicyclo[3.1.1]heptane 2,2,2-trifluoroacetate], the IC50 was not above 1000 nM.

As for `Cc1nc(N2CC3CC(C2)O3)cc(-n2ncc3cc(C)c(C4CCNCC4)cc32)n1` [Example E61, 3-(2-methyl-6-(5-methyl-6-(piperidin-4-yl)-1H-indazol-1-yl)pyrimidin-4-yl)-6-oxa-3-azabicyclo[3.1.1]heptane 2,2,2-trifluoroacetate], the IC50 is not above 1000 nM.

Consider `COc1nc(N2CC3CCC(C2)O3)cc(-n2ncc3cc(C)c(C4CCNCC4)cc32)n1` [Example E62, 3-(2-methoxy-6-(5-methyl-6-(piperidin-4-yl)-1H-indazol-1-yl)pyrimidin-4-yl)-8-oxa-3-azabicyclo[3.2.1]octane 2,2,2-trifluoroacetate], for which the IC50 is not above 1000 nM.

As to `Cc1nc(N2CC3CCC(C2)O3)cc(-n2ncc3cc(C)c(C4CCNCC4)cc32)n1` [Example E63, 3-(2-methyl-6-(5-methyl-6-(piperidin-4-yl)-1H-indazol-1-yl)pyrimidin-4-yl)-8-oxa-3-azabicyclo[3.2.1]octane 2,2,2-trifluoroacetate], the IC50 is not above 1000 nM.

For the compound `[2H]C([2H])([2H])Oc1nc(N2C[C@H]3C[C@@H]2CO3)cc(-n2ncc3cc(C)c(C4CCN(C5COC5)CC4)cc32)n1` [Example E72, (1R,4R)-5-(6-(5-methyl-6-(1-(oxetan-3-yl)piperidin-4-yl)-1H-indazol-1-yl)-2-(trideuteriummethoxy)pyrimidin-4-yl)-2-oxa-5-azabicyclo[2.2.1]heptane], the IC50 is not above 10 nM.

As to `[2H]C([2H])([2H])Oc1nc(N2C[C@@H]3C[C@H]2CO3)cc(-n2ncc3cc(C)c(C4CCN(C5COC5)CC4)cc32)n1` [Example E73, (1S,4S)-5-(6-(5-methyl-6-(1-(oxetan-3-yl)piperidin-4-yl)-1H-indazol-1-yl)-2-(trideuteriummethoxy)pyrimidin-4-yl)-2-oxa-5-azabicyclo[2.2.1]heptane], the IC50 was not above 1000 nM.

Take `Cc1nc(N2CC3CC(C2)C3C(=O)O)cc(-n2ncc3cc(C)c(C4CCOCC4)cc32)n1` (stereo not shown) [Example E80, 3-{2-Methyl-6-[5-methyl-6-(tetrahydro-pyran-4-yl)-indazol-1-yl]-pyrimidin-4-yl}-3-aza-bicyclo[3.1.1]heptane-6-carboxylic Acid]: the IC50 is not above 1000 nM.

Regarding `COc1nc(N2CC3CC(C2)C3C(=O)O)cc(-n2ncc3cc(C)c(OC(C)C)cc32)n1` (stereo not shown) [Example E81, 3-(6-(6-isopropoxy-5-methyl-1H-indazol-1-yl)-2-methoxypyrimidin-4-yl)-3-azabicyclo[3.1.1]heptane-6-carboxylic Acid], the IC50 is not above 10 nM.

Turning to `COc1nc(N2C[C@@H]3C[C@H]2CO3)cc(-n2ncc3cc(C)c(C4CCN(CCC(=O)O)CC4)cc32)n1` [Example E165, 3-(4-(1-(6-((1S,4S)-2-oxa-5-azabicyclo[2.2.1]heptan-5-yl)-2-methoxypyrimidin-4-yl)-5-methyl-1H-indazol-6-yl)piperidin-1-yl)propanoic Acid], the IC50 is not above 1000 nM.

Consider `Cc1nc(N2C[C@H]3C[C@@H]2CO3)cc(-n2ncc3cc(C)c(C4C5CN(C6CCOC6)CC54)cc32)n1` (stereo partly drawn) [Example E179, (1R,4R)-5-(2-methyl-6-(5-methyl-6-(3-((S)-tetrahydrofuran-3-yl)-3-azabicyclo-[3.1.0]hexan-6-yl)-1H-indazol-1-yl)pyrimidin-4-yl)-2-oxa-5-azabicyclo[2.2.1]heptane], for which the IC50 was not above 1000 nM.

As for `Cc1nc(N2C[C@H]3C[C@@H]2CO3)cc(-n2ncc3cc(C)c(C4C5CN(CCS(C)(=O)=O)CC54)cc32)n1` (stereo partly drawn) [Example E180, (1R,4R)-5-(2-methyl-6-(5-methyl-6-(3-(2-(methylsulfonyl)ethyl)-3-azabicyclo[3.1.0]hexan-6-yl)-1H-indazol-1-yl)pyrimidin-4-yl)-2-oxa-5-azabicyclo[2.2.1]heptane], the IC50 is not above 1000 nM.
